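Exposure lasted 48 hours, with cells grown in 96-well plates and compounds tested at five concentrations. GI50 marks 50% less growth. The concentration for full growth arrest is given as TGI.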
Columns and labels:
Assay in all cases: NCI anticancer screen, dose series, 48 h
SK-MEL-28 melanoma = tested on: SK-MEL-28 melanoma
RXF 393 renal = tested on: RXF 393 renal
OVCAR-3 ovarian = tested on: OVCAR-3 ovarian
786-0 renal = tested on: 786-0 renal
HCT-15 colon = tested on: HCT-15 colon
NCI-H226 lung = tested on: NCI-H226 lung
LOX IMVI melanoma = tested on: LOX IMVI melanoma
SF-539 CNS = tested on: SF-539 CNS
ACHN renal = tested on: ACHN renal
SK-OV-3 ovarian = tested on: SK-OV-3 ovarian

For `COc1ccc(C(=O)Cn2c(C(=O)c3ccc(Cl)cc3)nc3ccccc32)cc1`, the GI50 (SK-MEL-28 melanoma) was > 22.4 µM, the TGI (SK-MEL-28 melanoma) was > 100 µM and the GI50 (RXF 393 renal) was 3.62 µM. The TGI (RXF 393 renal) was 20.5 µM, the GI50 (OVCAR-3 ovarian) was > 20.3 µM and the TGI (OVCAR-3 ovarian) was > 77.6 µM. For the same molecule, the GI50 (786-0 renal) was 13.2 µM, the TGI (786-0 renal) was > 27.3 µM and the GI50 (HCT-15 colon) was 3.88 µM. For the same molecule, the TGI (HCT-15 colon) was > 100 µM, the GI50 (NCI-H226 lung) was > 100 µM and the TGI (NCI-H226 lung) was > 100 µM. The GI50 (LOX IMVI melanoma) was 17.5 µM, the TGI (LOX IMVI melanoma) was > 100 µM and the GI50 (SF-539 CNS) was 99.3 µM. For the same molecule, the TGI (SF-539 CNS) was > 100 µM, the GI50 (ACHN renal) was 22.9 µM and the TGI (ACHN renal) was > 100 µM. For the same molecule, the GI50 (SK-OV-3 ovarian) was 23.6 µM and the TGI (SK-OV-3 ovarian) was > 100 µM.
